{
  "source": "paper PMC4672351",
  "about": "“Drug-Drug Interaction Potentials of Tyrosine Kinase Inhibitors via Inhibition of UDP-Glucuronosyltransferases” (Scientific Reports, 2015)",
  "data": [
    {"target": "T1, UGT2B17 (Homo sapiens, UniProt O75795)", "T1 sequence (O75795 24-530)": "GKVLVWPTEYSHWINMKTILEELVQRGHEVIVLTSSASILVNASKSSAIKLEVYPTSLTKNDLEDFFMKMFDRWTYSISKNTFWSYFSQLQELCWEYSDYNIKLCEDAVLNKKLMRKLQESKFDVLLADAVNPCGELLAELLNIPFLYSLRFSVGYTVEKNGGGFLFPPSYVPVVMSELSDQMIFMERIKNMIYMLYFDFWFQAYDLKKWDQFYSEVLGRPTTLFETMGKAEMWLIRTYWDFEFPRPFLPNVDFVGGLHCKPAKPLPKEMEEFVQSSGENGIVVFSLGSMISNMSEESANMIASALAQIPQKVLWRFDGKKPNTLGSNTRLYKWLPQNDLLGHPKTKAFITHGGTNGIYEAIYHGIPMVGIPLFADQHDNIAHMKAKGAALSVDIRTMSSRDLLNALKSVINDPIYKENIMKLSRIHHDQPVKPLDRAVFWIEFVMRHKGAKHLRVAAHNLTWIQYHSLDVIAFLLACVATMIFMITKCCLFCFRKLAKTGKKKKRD", "test": "Inhibition of 4-MU glucuronidation by recombinant UGT2B17", "conditions": "recombinant UGT2B17, pH 7.4, probe 4-MU", "units": {"activity at 120 min, 100 µM": "%"}, "values": [
      {"smiles": "CNC(=O)c1ccccc1Sc1ccc2c(/C=C/c3ccccn3)n[nH]c2c1", "note": "[Axitinib, axitinib]", "activity at 120 min, 100 µM": "55.9 ± 0.3"},
      {"smiles": "CS(=O)(=O)CCNCc1ccc(-c2ccc3ncnc(Nc4ccc(OCc5cccc(F)c5)c(Cl)c4)c3c2)o1", "note": "[Lapatinib, lapatinib]", "activity at 120 min, 100 µM": "94.8 ± 5.7"},
      {"smiles": "COc1cc2c(Nc3ccc(Br)cc3F)ncnc2cc1OCC1CCN(C)CC1", "note": "[Vandetanib, vandetanib]", "activity at 120 min, 100 µM": "69.7 ± 3.1"}
    ]},
    {"target": "T2, UGT2B15 (Homo sapiens, UniProt P54855)", "T2 sequence (P54855 24-530)": "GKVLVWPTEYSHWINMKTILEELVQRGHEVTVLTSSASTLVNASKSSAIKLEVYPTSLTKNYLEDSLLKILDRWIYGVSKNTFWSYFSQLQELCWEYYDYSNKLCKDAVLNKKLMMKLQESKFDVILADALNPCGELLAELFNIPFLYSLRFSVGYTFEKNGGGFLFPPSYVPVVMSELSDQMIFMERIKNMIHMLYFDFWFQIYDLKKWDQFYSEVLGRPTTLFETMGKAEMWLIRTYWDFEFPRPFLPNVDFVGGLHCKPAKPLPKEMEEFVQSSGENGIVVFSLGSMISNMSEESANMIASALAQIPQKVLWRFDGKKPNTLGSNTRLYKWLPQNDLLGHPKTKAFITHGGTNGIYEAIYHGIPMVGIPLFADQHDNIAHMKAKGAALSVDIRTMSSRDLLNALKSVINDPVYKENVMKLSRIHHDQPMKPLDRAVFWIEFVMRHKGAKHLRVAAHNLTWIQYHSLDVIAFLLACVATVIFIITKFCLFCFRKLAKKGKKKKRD", "test": "Inhibition of 4-MU glucuronidation by recombinant UGT2B15", "conditions": "recombinant UGT2B15, pH 7.4, probe 4-MU", "units": {"activity at 120 min, 100 µM": "%"}, "values": [
      {"smiles": "CNC(=O)c1ccccc1Sc1ccc2c(/C=C/c3ccccn3)n[nH]c2c1", "note": "[Axitinib, axitinib]", "activity at 120 min, 100 µM": "49.3 ± 5.2"},
      {"smiles": "CS(=O)(=O)CCNCc1ccc(-c2ccc3ncnc(Nc4ccc(OCc5cccc(F)c5)c(Cl)c4)c3c2)o1", "note": "[Lapatinib, lapatinib]", "activity at 120 min, 100 µM": "110 ± 3.1"},
      {"smiles": "COc1cc2c(Nc3ccc(Br)cc3F)ncnc2cc1OCC1CCN(C)CC1", "note": "[Vandetanib, vandetanib]", "activity at 120 min, 100 µM": "79.2 ± 1.4"}
    ]},
    {"system": "not listed separately", "test": "Estimation of in vivo TKI concentrations after repeated oral administration", "design": "species or system human", "conditions": "calculated from literature PK parameters", "units": {"Calculated Concentrations Iav (average systemic plasma concentration)": "µM", "Calculated Concentrations Iin,u (maximum unbound hepatic input concentration)": "µM", "Calculated Concentrations Imax,u (maximum unbound systemic plasma concentration)": "µM"}, "values": [
      {"smiles": "CNC(=O)c1ccccc1Sc1ccc2c(/C=C/c3ccccn3)n[nH]c2c1", "note": "[Axitinib, axitinib]", "Calculated Concentrations Iav (average systemic plasma concentration)": 0.024, "Calculated Concentrations Iin,u (maximum unbound hepatic input concentration)": 0.00086, "Calculated Concentrations Imax,u (maximum unbound systemic plasma concentration)": 0.00067},
      {"smiles": "CS(=O)(=O)CCNCc1ccc(-c2ccc3ncnc(Nc4ccc(OCc5cccc(F)c5)c(Cl)c4)c3c2)o1", "note": "[Lapatinib, lapatinib]", "Calculated Concentrations Iav (average systemic plasma concentration)": 0.79, "Calculated Concentrations Iin,u (maximum unbound hepatic input concentration)": 0.12, "Calculated Concentrations Imax,u (maximum unbound systemic plasma concentration)": 0.011},
      {"smiles": "COc1cc2c(Nc3ccc(Br)cc3F)ncnc2cc1OCC1CCN(C)CC1", "note": "[Vandetanib, vandetanib]", "Calculated Concentrations Iav (average systemic plasma concentration)": 1.99, "Calculated Concentrations Iin,u (maximum unbound hepatic input concentration)": 0.23, "Calculated Concentrations Imax,u (maximum unbound systemic plasma concentration)": 0.12}
    ]},
    {"target": "T3, UGT2B4 (Homo sapiens, UniProt P06133)", "T3 construct": "purchased BD Gentest (Woburn, MA); host or cells: baculovirus-infected insect cells", "T3 sequence (P06133 24-528)": "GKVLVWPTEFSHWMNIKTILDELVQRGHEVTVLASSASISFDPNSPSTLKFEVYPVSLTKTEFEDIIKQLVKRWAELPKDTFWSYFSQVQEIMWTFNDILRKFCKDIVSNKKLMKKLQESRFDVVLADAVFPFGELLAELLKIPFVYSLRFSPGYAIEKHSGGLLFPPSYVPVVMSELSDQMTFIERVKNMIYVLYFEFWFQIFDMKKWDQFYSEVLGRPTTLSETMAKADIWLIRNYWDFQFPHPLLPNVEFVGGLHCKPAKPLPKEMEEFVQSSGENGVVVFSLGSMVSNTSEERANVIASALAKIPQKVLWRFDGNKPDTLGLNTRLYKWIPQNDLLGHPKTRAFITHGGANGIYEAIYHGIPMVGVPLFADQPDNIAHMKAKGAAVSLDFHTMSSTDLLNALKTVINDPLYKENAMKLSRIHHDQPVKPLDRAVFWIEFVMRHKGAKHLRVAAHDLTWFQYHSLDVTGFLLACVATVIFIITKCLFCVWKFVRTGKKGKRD", "test": "Inhibition of 4-MU glucuronidation by recombinant UGT2B4", "type": "in vitro ADME", "conditions": "recombinant UGT2B4, pH 7.4, probe 4-MU, 100 μM inhibitor, 4-MU substrate, read-out: Remaining activities (%) of UGT2B4", "units": {"activity at 120 min, 100 µM": "%"}, "values": [
      {"smiles": "CNC(=O)c1ccccc1Sc1ccc2c(/C=C/c3ccccn3)n[nH]c2c1", "note": "[Axitinib, axitinib]", "activity at 120 min, 100 µM": "42.1 ± 1.6"},
      {"smiles": "CS(=O)(=O)CCNCc1ccc(-c2ccc3ncnc(Nc4ccc(OCc5cccc(F)c5)c(Cl)c4)c3c2)o1", "note": "[Lapatinib, lapatinib]", "activity at 120 min, 100 µM": "105.1 ± 0.2"},
      {"smiles": "COc1cc2c(Nc3ccc(Br)cc3F)ncnc2cc1OCC1CCN(C)CC1", "note": "[Vandetanib, vandetanib]", "activity at 120 min, 100 µM": "80.8 ± 6.6"}
    ]},
    {"system": "not given", "test": "not given", "conditions": "clinical oral dose: axitinib 5 mg/12 h, imatinib 400 mg/24 h, lapatinib 1250 mg/24 h, vandetanib 300 mg/24 h; ref [17][40][45] axitinib, [38][39][46] imatinib, [41][42] lapatinib, [43][44] vandetanib; cited from earlier work", "units": {"Cmax": "µM"}, "values": [
      {"smiles": "CNC(=O)c1ccccc1Sc1ccc2c(/C=C/c3ccccn3)n[nH]c2c1", "note": "[Axitinib, axitinib]", "Cmax": 0.16},
      {"smiles": "CS(=O)(=O)CCNCc1ccc(-c2ccc3ncnc(Nc4ccc(OCc5cccc(F)c5)c(Cl)c4)c3c2)o1", "note": "[Lapatinib, lapatinib]", "Cmax": 4.2},
      {"smiles": "COc1cc2c(Nc3ccc(Br)cc3F)ncnc2cc1OCC1CCN(C)CC1", "note": "[Vandetanib, vandetanib]", "Cmax": 3.32}
    ]},
    {"system": "not given", "test": "not given", "conditions": "clinical; ref [17][40][45] axitinib, [38][39][46] imatinib, [41][42] lapatinib, [43][44] vandetanib; cited from earlier work", "units": {"Absorption Rate Constant (ka)": "h⁻¹", "Oral CL": "L/h", "t1/2": "h"}, "values": [
      {"smiles": "CNC(=O)c1ccccc1Sc1ccc2c(/C=C/c3ccccn3)n[nH]c2c1", "note": "[Axitinib, axitinib]", "Absorption Rate Constant (ka)": 0.523, "Fraction absorbed (Fa)": 0.88, "Oral CL": 45, "t1/2": 3.2},
      {"smiles": "CS(=O)(=O)CCNCc1ccc(-c2ccc3ncnc(Nc4ccc(OCc5cccc(F)c5)c(Cl)c4)c3c2)o1", "note": "[Lapatinib, lapatinib]", "Absorption Rate Constant (ka)": 0.7, "Fraction absorbed (Fa)": 0.73, "Oral CL": 114, "t1/2": 24},
      {"smiles": "COc1cc2c(Nc3ccc(Br)cc3F)ncnc2cc1OCC1CCN(C)CC1", "note": "[Vandetanib, vandetanib]", "Absorption Rate Constant (ka)": 0.3, "Fraction absorbed (Fa)": 0.935, "Oral CL": 13.2, "t1/2": 456}
    ]},
    {"target": "T4, UGT1A9 (Homo sapiens, UniProt O60656)", "T4 sequence (O60656 26-530)": "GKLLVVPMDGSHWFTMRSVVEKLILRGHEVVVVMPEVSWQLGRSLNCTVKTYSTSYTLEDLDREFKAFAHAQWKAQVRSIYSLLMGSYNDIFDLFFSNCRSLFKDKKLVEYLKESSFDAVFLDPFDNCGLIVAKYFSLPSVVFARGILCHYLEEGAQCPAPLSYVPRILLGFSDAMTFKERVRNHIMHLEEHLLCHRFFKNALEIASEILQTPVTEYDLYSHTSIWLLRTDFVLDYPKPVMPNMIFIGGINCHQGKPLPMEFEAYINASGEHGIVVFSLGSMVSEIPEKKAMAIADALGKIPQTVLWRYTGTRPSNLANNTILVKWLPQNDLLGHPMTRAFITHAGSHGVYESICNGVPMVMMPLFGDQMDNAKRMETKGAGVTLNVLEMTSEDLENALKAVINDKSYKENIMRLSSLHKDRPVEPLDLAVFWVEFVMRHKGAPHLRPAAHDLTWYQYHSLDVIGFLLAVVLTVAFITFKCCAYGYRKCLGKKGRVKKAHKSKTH", "test": "in vitro", "conditions": "recombinant UGT1A9, pH 7.4, probe 4-MU", "units": {"activity at 30 min, 100 µM": "%"}, "values": [
      {"smiles": "CNC(=O)c1ccccc1Sc1ccc2c(/C=C/c3ccccn3)n[nH]c2c1", "note": "[Axitinib, axitinib]", "activity at 30 min, 100 µM": "44.8 ± 0.2"},
      {"smiles": "CS(=O)(=O)CCNCc1ccc(-c2ccc3ncnc(Nc4ccc(OCc5cccc(F)c5)c(Cl)c4)c3c2)o1", "note": "[Lapatinib, lapatinib]", "activity at 30 min, 100 µM": "51.1 ± 7.9"},
      {"smiles": "COc1cc2c(Nc3ccc(Br)cc3F)ncnc2cc1OCC1CCN(C)CC1", "note": "[Vandetanib, vandetanib]", "activity at 30 min, 100 µM": "14.1 ± 4.7"}
    ]}
  ]
}
